Columns and labels:
Acetylcholinesterase = target: T1, Acetylcholinesterase (Rattus norvegicus, UniProt P37136); assay: Inhibitory concentration against acetylcholinesterase from rat cortex homogenate by ellman method was determined
T1 sequence (P37136 whole entry): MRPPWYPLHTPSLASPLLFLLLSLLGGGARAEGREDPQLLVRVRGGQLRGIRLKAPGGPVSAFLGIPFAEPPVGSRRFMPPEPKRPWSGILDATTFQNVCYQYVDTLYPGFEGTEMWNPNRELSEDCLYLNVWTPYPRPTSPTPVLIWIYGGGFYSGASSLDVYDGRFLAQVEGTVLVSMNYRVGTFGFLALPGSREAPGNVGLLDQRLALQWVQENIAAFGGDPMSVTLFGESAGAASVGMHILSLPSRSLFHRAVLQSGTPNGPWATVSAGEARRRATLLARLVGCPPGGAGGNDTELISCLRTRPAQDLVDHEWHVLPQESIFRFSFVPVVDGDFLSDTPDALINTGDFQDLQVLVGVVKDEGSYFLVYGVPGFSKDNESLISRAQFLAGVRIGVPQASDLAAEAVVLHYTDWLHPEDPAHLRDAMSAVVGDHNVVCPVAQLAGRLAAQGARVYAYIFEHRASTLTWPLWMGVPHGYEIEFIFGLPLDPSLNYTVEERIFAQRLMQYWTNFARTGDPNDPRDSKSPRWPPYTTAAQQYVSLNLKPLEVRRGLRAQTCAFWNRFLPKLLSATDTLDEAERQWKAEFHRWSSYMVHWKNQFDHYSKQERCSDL

[1] = target: Acetylcholinesterase and butyrylcholinesterase (AChE and BChE) (Rattus norvegicus) (UniProt P37136+Q9JKC1); assay: Ratio of inhibitory concentration for AChE and BChE; type: protein assay
Butyrylcholinesterase = Butyrylcholinesterase (Rattus norvegicus, UniProt Q9JKC1); assay: Inhibitory concentration against butyrylcholinesterase from rat serum
Butyrylcholinesterase, sequence (Q9JKC1 whole entry): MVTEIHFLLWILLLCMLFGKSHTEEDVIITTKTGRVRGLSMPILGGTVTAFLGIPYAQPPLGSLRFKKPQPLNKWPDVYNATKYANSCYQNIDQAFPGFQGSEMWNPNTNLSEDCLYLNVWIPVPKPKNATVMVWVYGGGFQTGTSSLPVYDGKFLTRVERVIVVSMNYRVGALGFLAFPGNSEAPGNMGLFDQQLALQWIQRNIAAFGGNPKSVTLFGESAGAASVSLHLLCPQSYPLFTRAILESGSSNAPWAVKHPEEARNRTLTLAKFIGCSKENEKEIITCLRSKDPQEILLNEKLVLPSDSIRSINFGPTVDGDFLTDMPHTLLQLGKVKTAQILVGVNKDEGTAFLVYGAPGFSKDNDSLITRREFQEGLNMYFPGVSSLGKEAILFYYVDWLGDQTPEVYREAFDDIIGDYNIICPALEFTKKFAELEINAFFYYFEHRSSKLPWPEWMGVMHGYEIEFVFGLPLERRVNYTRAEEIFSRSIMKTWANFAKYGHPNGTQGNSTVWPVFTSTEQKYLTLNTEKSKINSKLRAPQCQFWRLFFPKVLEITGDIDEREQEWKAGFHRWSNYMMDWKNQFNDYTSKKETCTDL

Acetylcholinesterase and butyrylcholinesterase (AChE and BChE) (Rattus norvegicus), sequence (Q9JKC1 1-597, one chain of several): as the sequence (Q9JKC1 whole entry) above

Compound CC1=C[C@H]2Cc3[nH]c(=O)ccc3[C@@]3(C1)[C@@H]2CCCN3C(=O)CN(C)Cc1ccccc1 has an IC50 (Acetylcholinesterase) of 50.7 µM.

With CC1=C[C@H]2Cc3nc(O)ccc3[C@@]3(C1)[C@@H]2CCCN3CCN(C)CCCc1ccccc1 the IC50 (Acetylcholinesterase) was 9.53 µM.

With CC1=C[C@H]2Cc3[nH]c(=O)ccc3[C@@]3(C1)[C@@H]2CCCN3CCN(Cc1ccccc1)c1ccccc1 the IC50 (Acetylcholinesterase) was > 54 µM.

In the case of CC1=C[C@H]2Cc3nc(O)ccc3[C@@]3(C1)[C@@H]2CCCN3C(=O)CN(Cc1ccccc1)c1ccccc1, the IC50 (Acetylcholinesterase) is reported as > 52 µM.

CC1=CC2Cc3[nH]c(=O)ccc3[C@@]3(C1)[C@@H]2CCCN3C(=O)CN1CCN(Cc2ccccc2)CC1 showed an IC50 (Acetylcholinesterase) of 33.3 µM.

For COc1ccc(CN2CCN(CC(=O)N3CCC[C@@H]4C5C=C(C)C[C@]43c3ccc(=O)[nH]c3C5)CC2)cc1, the IC50 (Acetylcholinesterase) was 5.75 µM.

CC1=C[C@H]2Cc3nc(O)ccc3[C@@]3(C1)[C@@H]2CCCN3CCN(C)CCc1ccccc1 gave an IC50 (Acetylcholinesterase) of 20.7 µM.

With CC1=CC2Cc3[nH]c(=O)ccc3[C@@]3(C1)[C@@H]2CCCN3C(=O)CN1CCN(Cc2ccc([N+](=O)[O-])cc2)CC1 the IC50 (Acetylcholinesterase) was 5.58 µM.

For CC1=C[C@H]2Cc3[nH]c(=O)ccc3[C@@]3(C1)[C@@H]2CCCN3C(=O)CN1CCN(CC(=O)N2CCC[C@@H]3[C@H]4C=C(C)C[C@]32c2ccc(=O)[nH]c2C4)CC1, the IC50 (Acetylcholinesterase) was 1.17 µM, the Selectivity [1] was > 157 and the IC50 (Butyrylcholinesterase) was > 184 µM.

CC1=C[C@H]2Cc3nc(O)ccc3[C@@]3(C1)[C@@H]2CCCN3CCN(C)Cc1ccccc1 was tested, and the IC50 (Acetylcholinesterase) was 66.5 µM.

CC1=C[C@H]2Cc3[nH]c(=O)ccc3[C@@]3(C1)[C@@H]2CCCN3CCN1CCCN(CCN2CCC[C@@H]3[C@H]4C=C(C)C[C@]32c2ccc(=O)[nH]c2C4)CC1 showed an IC50 (Acetylcholinesterase) of 0.218 µM, a Selectivity [1] of 573 and an IC50 (Butyrylcholinesterase) of 125 µM.

CC1=CC2Cc3[nH]c(=O)ccc3[C@@]3(C1)[C@@H]2CCCN3C(=O)CN(C)CCc1ccccc1 showed an IC50 (Acetylcholinesterase) of 23.5 µM.

CC1=C[C@H]2Cc3nc(O)ccc3[C@@]3(C1)[C@@H]2CCCN3CN1CCN(Cc2ccccc2)CC1 gave an IC50 (Acetylcholinesterase) of 31.6 µM.

CC1=CC2Cc3[nH]c(=O)ccc3[C@@]3(C1)[C@@H]2CCCN3C(=O)CN(C)CCCc1ccccc1 was tested, and the IC50 (Acetylcholinesterase) was 6.19 µM.

CC1=CC2Cc3[nH]c(=O)ccc3[C@@]3(C1)[C@@H]2CCCN3CCN1CCN(CC[N+]2(C(=O)CN)CCC[C@@H]3C4C=C(C)C[C@]32c2ccc(=O)[nH]c2C4)CC1 (stereo partly drawn) gave an IC50 (Acetylcholinesterase) of 0.407 µM, a Selectivity [1] of 472 and an IC50 (Butyrylcholinesterase) of 192 µM.

Work on CC1=C[C@H]2Cc3nc(O)ccc3[C@@]3(C1)[C@@H]2CCCN3CCN1CCN(Cc2cccnc2)CC1 yielded an IC50 (Acetylcholinesterase) of 26.7 µM.

For CC1=C[C@H]2Cc3[nH]c(=O)ccc3[C@@]3(C1)NCCC[C@H]23, the IC50 (Butyrylcholinesterase) was 157 µM.

CC1=C[C@H]2Cc3[nH]c(=O)ccc3[C@@]3(C1)[C@@H]2CCCN3C(=O)CN1CCCN(CC(=O)N2CCC[C@@H]3[C@H]4C=C(C)C[C@]32c2ccc(=O)[nH]c2C4)CC1 gave an IC50 (Acetylcholinesterase) of 0.114 µM, a Selectivity [1] of 1500 and an IC50 (Butyrylcholinesterase) of 171 µM.

COc1ccc(CN2CCN(CN3CCC[C@@H]4[C@H]5C=C(C)C[C@]43c3ccc(O)nc3C5)CC2)cc1 showed an IC50 (Acetylcholinesterase) of 10.3 µM.

CC1=C[C@H]2Cc3nc(O)ccc3[C@@]3(C1)[C@@H]2CCCN3C(=O)N1CCN(Cc2cccnc2)CC1 gave an IC50 (Acetylcholinesterase) of 38.1 µM.

Source: ChEMBL document CHEMBL1144263, “Synthesis and acetylcholinesterase inhibition of derivatives of huperzine B” (Bioorg Med Chem Lett, 2005)
